Test results as given in patent publication US20240327439A1, “PHARMACOLOGICAL AGENTS FOR PREVENTING AND TREATING CATARACTS AND PRESBYOPIA EYE DISEASES” (Plex Pharmaceuticals, Inc., priority 2021, published 2024).

Test system: Bovine lens lysates
Assay: Prevention of UVC/H2O2-induced aggregation (opacification) of bovine lens extracts
Format: biochemical
Settings: bovine lens lysates 2 mg/ml, various concentrations of compound, UV-irradiated, vs vehicle 0.5% DMSO
Description: Bovine lens lysates (2 mg/ml, 50 μl) were incubated with various concentrations of CAP1160 (structure shown below) or a vehicle (0.5% DMSO), and then left unexposed (no exposure) or exposed to UV (UV-irradiated). At various time points, wells-containing bovine lens lysates were pictured and the corresponding absorbance at 600 nm (A600) was measured. Representative brightfield images of wells taken 7 min after initial UV exposure (FIG. 1A) and corresponding A600 (FIG. 1B).

## Cc1ccc(C(=O)c2cc(O)c(O)c([N+](=O)[O-])c2)cc1 [CAP1160]
  opacification of bovine lens protein lysates induced by UV irradiation (absorbance at 600 nm, brightfield images): delays, in a dose-dependent manner, the opacification
